In US6358885B1, “Substituted phenylheterocyclic herbicides” (Mississippi State University, priority 1992, dated 2002):

Experiments:
Experiment in all cases: Test G preemergence/postemergence greenhouse plant response rating 0 to 100
guineagrass = format: in vivo, Panicum maximum; details: 0 to 100 scale
How it was run: (§1)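 Greenhouse pots, one species each; non-phytotoxic solvent vehicle. Read-out: visual injury vs untreated, 13–21 DAT. Dash denotes no result.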

peanut = format: in vivo, Arachis hypoagaea; details: 0 to 100 scale
How it was run: as §1

goosegrass = format: in vivo, Eleusine indica; details: 0 to 100 scale
How it was run: as §1

annual bluegrass = format: in vivo, Poa annua; details: 0 to 100 scale
How it was run: as §1

sandbur = format: in vivo, Cenchrus echinatus; details: 0 to 100 scale
How it was run: as §1

common ragweed = format: in vivo, Ambrosia elatior; details: 0 to 100 scale
How it was run: as §1

purple nutsedge = format: in vivo, Cyperus rotundus; details: Rate 125 g/ha, 0 to 100 scale
How it was run: as §1

smooth crabgrass = format: in vivo, Digitaria ischaemum; details: 0 to 100 scale
How it was run: as §1

common purslane = format: in vivo, Portulaca oleracea; details: 0 to 100 scale
How it was run: as §1

broadleaf signalgrass = format: in vivo, Brachiaria plantaginea; details: 0 to 100 scale
How it was run: as §1

yellow nutsedge = format: in vivo, Cyperus esculentus; details: Rate 125 g/ha, 0 to 100 scale
How it was run: as §1

itchgrass = format: in vivo, Rottboellia exaltata; details: 0 to 100 scale
How it was run: as §1

johnsongrass = format: in vivo, Sorghum halepense; details: 0 to 100 scale
How it was run: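 Pre- and postemergence treatments used compound in non-phytotoxic solvent on potted greenhouse plants grown from seed, rhizome or plant part. Postemergence plants were at the 2–4 leaf stage; damage was assessed by eye versus untreated pots after 13–21 days.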

dallisgrass = format: in vivo, Paspalum dilatatum; details: 0 to 100 scale
How it was run: as §1

alfalfa = format: in vivo, Medicago ativa; details: 0 to 100 scale
How it was run: as §1

pitted morningglory = format: in vivo, Ipomoea lacunosa; details: 0 to 100 scale
How it was run: as §1

In the case of `Fc1cc(Cl)c(OC2CCCC2)cc1-c1nn2c(c1Cl)CCCC2` [Compound 24], the “Plant response rating, Guineagrass” value (guineagrass; POSTEMERGENCE, Rate 125 g/ha) is reported as 0, the “Plant response rating, Guineagrass” value (guineagrass; POSTEMERGENCE, Rate 250 g/ha) is reported as 0 and the “Plant response rating, Guineagrass” value (guineagrass; PREEMERGENCE, Rate 125 g/ha) is reported as 0. The “Plant response rating, Guineagrass” value (guineagrass; PREEMERGENCE, Rate 250 g/ha) was 0, the “Plant response rating, Peanuts” value (peanut; POSTEMERGENCE, Rate 125 g/ha) was 0 and the “Plant response rating, Peanuts” value (peanut; POSTEMERGENCE, Rate 250 g/ha) was 0. For the same molecule, the “Plant response rating, Peanuts” value (peanut; PREEMERGENCE, Rate 125 g/ha) was 0, the “Plant response rating, Peanuts” value (peanut; PREEMERGENCE, Rate 250 g/ha) was 0 and the “Plant response rating, Goosegrass” value (goosegrass; POSTEMERGENCE, Rate 125 g/ha) was 0. For the same molecule, the “Plant response rating, Goosegrass” value (goosegrass; POSTEMERGENCE, Rate 250 g/ha) was 0, the “Plant response rating, Goosegrass” value (goosegrass; PREEMERGENCE, Rate 125 g/ha) was 90 and the “Plant response rating, Goosegrass” value (goosegrass; PREEMERGENCE, Rate 250 g/ha) was 40. For the same molecule, the “Plant response rating, Ann Bluegrass” value (annual bluegrass; POSTEMERGENCE, Rate 125 g/ha) was 0, the “Plant response rating, Ann Bluegrass” value (annual bluegrass; POSTEMERGENCE, Rate 250 g/ha) was 0 and the “Plant response rating, Ann Bluegrass” value (annual bluegrass; PREEMERGENCE, Rate 125 g/ha) was 30. The “Plant response rating, Ann Bluegrass” value (annual bluegrass; PREEMERGENCE, Rate 250 g/ha) was 0, the “Plant response rating, S. Sandbur” value (sandbur; POSTEMERGENCE, Rate 125 g/ha) was 0 and the “Plant response rating, S. Sandbur” value (sandbur; POSTEMERGENCE, Rate 250 g/ha) was 0. For the same molecule, the “Plant response rating, S. Sandbur” value (sandbur; PREEMERGENCE, Rate 125 g/ha) was 40, the “Plant response rating, S. Sandbur” value (sandbur; PREEMERGENCE, Rate 250 g/ha) was 0 and the “Plant response rating, Cmn Ragweed” value (common ragweed; POSTEMERGENCE, Rate 125 g/ha) was 50. The “Plant response rating, Cmn Ragweed” value (common ragweed; POSTEMERGENCE, Rate 250 g/ha) was 0, the “Plant response rating, Cmn Ragweed” value (common ragweed; PREEMERGENCE, Rate 125 g/ha) was 40 and the “Plant response rating, Cmn Ragweed” value (common ragweed; PREEMERGENCE, Rate 250 g/ha) was 0. For the same molecule, the “Plant response rating, Purple Nutsedge” value (purple nutsedge; POSTEMERGENCE) was 0, the “Plant response rating, Purple Nutsedge” value (purple nutsedge; PREEMERGENCE) was 0 and the “Plant response rating, Smooth Crabgras” value (smooth crabgrass; POSTEMERGENCE, Rate 125 g/ha) was 0. The “Plant response rating, Smooth Crabgras” value (smooth crabgrass; POSTEMERGENCE, Rate 250 g/ha) was 0, the “Plant response rating, Smooth Crabgras” value (smooth crabgrass; PREEMERGENCE, Rate 125 g/ha) was 0 and the “Plant response rating, Smooth Crabgras” value (smooth crabgrass; PREEMERGENCE, Rate 250 g/ha) was 0. For the same molecule, the “Plant response rating, Cmn Purslane” value (common purslane; POSTEMERGENCE, Rate 125 g/ha) was 80, the “Plant response rating, Cmn Purslane” value (common purslane; POSTEMERGENCE, Rate 250 g/ha) was 70 and the “Plant response rating, Cmn Purslane” value (common purslane; PREEMERGENCE, Rate 125 g/ha) was 0. For the same molecule, the “Plant response rating, Cmn Purslane” value (common purslane; PREEMERGENCE, Rate 250 g/ha) was 0, the “Plant response rating, Brdlf Sgnlgrass” value (broadleaf signalgrass; POSTEMERGENCE, Rate 125 g/ha) was 0 and the “Plant response rating, Brdlf Sgnlgrass” value (broadleaf signalgrass; POSTEMERGENCE, Rate 250 g/ha) was 0. The “Plant response rating, Brdlf Sgnlgrass” value (broadleaf signalgrass; PREEMERGENCE, Rate 125 g/ha) was 100, the “Plant response rating, Brdlf Sgnlgrass” value (broadleaf signalgrass; PREEMERGENCE, Rate 250 g/ha) was 0 and the “Plant response rating, Yellow Nutsedge” value (yellow nutsedge; POSTEMERGENCE) was 0. The “Plant response rating, Yellow Nutsedge” value (yellow nutsedge; PREEMERGENCE) was 0, the “Plant response rating, Itchgrass” value (itchgrass; POSTEMERGENCE, Rate 125 g/ha) was 0 and the “Plant response rating, Itchgrass” value (itchgrass; POSTEMERGENCE, Rate 250 g/ha) was 0. For the same molecule, the “Plant response rating, Itchgrass” value (itchgrass; PREEMERGENCE, Rate 125 g/ha) was 100, the “Plant response rating, Itchgrass” value (itchgrass; PREEMERGENCE, Rate 250 g/ha) was 20 and the “Plant response rating, Johnsongrass” value (johnsongrass; POSTEMERGENCE, Rate 125 g/ha) was 0. For the same molecule, the “Plant response rating, Johnsongrass” value (johnsongrass; POSTEMERGENCE, Rate 250 g/ha) was 0, the “Plant response rating, Johnsongrass” value (johnsongrass; PREEMERGENCE, Rate 125 g/ha) was 0 and the “Plant response rating, Johnsongrass” value (johnsongrass; PREEMERGENCE, Rate 250 g/ha) was 0. For the same molecule, the “Plant response rating, Dallisgrass” value (dallisgrass; POSTEMERGENCE, Rate 125 g/ha) was 0, the “Plant response rating, Dallisgrass” value (dallisgrass; POSTEMERGENCE, Rate 250 g/ha) was 0 and the “Plant response rating, Dallisgrass” value (dallisgrass; PREEMERGENCE, Rate 125 g/ha) was 20. For the same molecule, the “Plant response rating, Dallisgrass” value (dallisgrass; PREEMERGENCE, Rate 250 g/ha) was 30, the “Plant response rating, Alfalfa Var.” value (alfalfa; POSTEMERGENCE, Rate 125 g/ha) was 0 and the “Plant response rating, Alfalfa Var.” value (alfalfa; POSTEMERGENCE, Rate 250 g/ha) was 20. For the same molecule, the “Plant response rating, Alfalfa Var.” value (alfalfa; PREEMERGENCE, Rate 125 g/ha) was 0, the “Plant response rating, Alfalfa Var.” value (alfalfa; PREEMERGENCE, Rate 250 g/ha) was 0 and the “Plant response rating, Pit Morninglory” value (pitted morningglory; POSTEMERGENCE, Rate 125 g/ha) was 0. For the same molecule, the “Plant response rating, Pit Morninglory” value (pitted morningglory; POSTEMERGENCE, Rate 250 g/ha) was 30, the “Plant response rating, Pit Morninglory” value (pitted morningglory; PREEMERGENCE, Rate 125 g/ha) was 0 and the “Plant response rating, Pit Morninglory” value (pitted morningglory; PREEMERGENCE, Rate 250 g/ha) was 50.
